Experimental data reported in article PMC9899610 (Cancer Science, 2022).
Several values for one entry are separate records, joined by “and”; a condition that tells them apart may be missing. Equal values may be shown once. Entries after “also recorded” stand apart in the source; their conditions may differ. Read-outs that look alike come from different tables or passages of the source.

How the values were obtained:
[1] = tested on: advanced solid tumors; experiment: Objective tumor response; assay type: in vivo, human
[2] = tested on: serum Pi; experiment: Post hoc hyperphosphatemia assessment with phosphate-binding therapy; assay type: in vivo, human
[3] = for RAUC0–last / RCmax: ratio
[4] = tested on: patients with advanced solid tumors; conditions: global phase I study, 64% Caucasian patients; cited from earlier work
[5] = clinical; conditions: human, plasma, oral; for AUC(0-inf): AUC0–inf; for AUC(0-t): AUC0–last
[6] = tested on: cancer cell lines harboring various FGFR gene abnormalities; conditions: cited from earlier work
[7] = FGFR‐abnormal patients with GC, All patients (n = 21)
[8] = FGFR‐abnormal patients with GC, FGRF2 CN <10 (n = 10)
[9] = FGFR‐abnormal patients with GC, FGRF2 CN ≥10 (n = 11)
[10] = Futibatinib regimen QD (n = 43)
[11] = Futibatinib regimen TIW (n = 39)
[12] = With FGF/FGFR abnormalities (n = 52)
[13] = Without FGF/FGFR abnormalities or unknown (n = 30)
[14] = 40 QD patients treated with phosphate-binding therapy
[15] = Week 3 (day 21), QD 20 mg, n = 2, mean
[16] = Week 3, TIW 36 mg, n = 3, mean (standard deviation)
[17] = Week 3, TIW 56 mg, n = 6, mean (standard deviation)
[18] = Week 3, TIW 80 mg, n = 5, mean (standard deviation)
[19] = Week 3, TIW 120 mg, n = 3, mean (standard deviation)
[20] = Week 3, TIW 160 mg, n = 4, mean (standard deviation)
[21] = 16 mg, Day 1, QD 16 mg, n = 3, mean (standard deviation)
[22] = 16 mg, Week 3, TIW 16 mg, n = 1
[23] = 20 mg, Day 1, QD 20 mg, n = 7, mean (standard deviation)
[24] = 20 mg, Week 3 (day 21), QD 20 mg, n = 2, mean
[25] = 24 mg, Week 3, TIW 24 mg, n = 1

C=CC(=O)N1CC[C@H](n2nc(C#Cc3cc(OC)cc(OC)c3)c3c(N)ncnc32)C1 [futibatinib]
Best response CR [1, 7]: 0 (0.0) n (%)
Best response NE [1, 7]: 2 (9.5) n (%)
Best response PD [1, 7]: 12 (57.1) n (%)
Best response PR [1, 7]: 4 (19.0) n (%)
Best response SD [1, 7]: 3 (14.3) n (%)
DCR (95% CI) [1, 7]: 33.3 (14.6–57.0) %
ORR (95% CI) [1, 7]: 19.0 (5.4–41.9) %
Best response CR [1, 8]: 0 (0.0) n (%)
Best response NE [1, 8]: 2 (20.0) n (%)
Best response PD [1, 8]: 7 (70.0) n (%)
Best response PR [1, 8]: 0 (0.0) n (%)
Best response SD [1, 8]: 1 (10.0) n (%)
DCR (95% CI) [1, 8]: 10.0 (0.3–44.5) %
ORR (95% CI) [1, 8]: 0 (0–30.8) %
Best response CR [1, 9]: 0 (0.0) n (%)
Best response NE [1, 9]: 0 (0.0) n (%)
Best response PD [1, 9]: 5 (45.5) n (%)
Best response PR [1, 9]: 4 (36.4) n (%)
Best response SD [1, 9]: 2 (18.2) n (%)
DCR (95% CI) [1, 9]: 54.5 (23.4–83.3) %
ORR (95% CI) [1, 9]: 36.4 (10.9–69.2) %
Best response CR [1, 10]: 0 (0.0) n (%)
Best response NE [1, 10]: 4 (9.3) n (%)
Best response PD [1, 10]: 23 (53.5) n (%)
Best response PR [1, 10]: 5 (11.6) n (%)
Best response SD [1, 10]: 11 (25.6) n (%)
DCR (95% CI) [1, 10]: 37.2 (23.0–53.3) %
ORR (95% CI) [1, 10]: 11.6 (3.9–25.1) %
Best response CR [1, 11]: 0 (0.0) n (%)
Best response NE [1, 11]: 5 (12.8) n (%)
Best response PD [1, 11]: 23 (59.0) n (%)
Best response PR [1, 11]: 1 (2.6) n (%)
Best response SD [1, 11]: 10 (25.6) n (%)
DCR (95% CI) [1, 11]: 28.2 (15.0–44.9) %
ORR (95% CI) [1, 11]: 2.6 (0.1–13.5) %
Patients with best response of confirmed PR ([1]; GC patients with FGFR2 CN <10): 0/10
Patients with best response of confirmed PR ([1]; GC patients with FGFR2 CN ≥10): 4/11
Best response CR ([1]; Total (n = 82)): 0 (0.0) n (%)
Best response NE ([1]; Total (n = 82)): 9 (11.0) n (%)
Best response PD ([1]; Total (n = 82)): 46 (56.1) n (%)
Best response SD ([1]; Total (n = 82)): 21 n (%) and 21 (25.6) n (%)
DCR (95% CI) ([1]; Total (n = 82)): 32.9 (22.9–44.2) %
ORR (95% CI) ([1]; Total (n = 82)): 7.3 (2.7–15.2) %
Best response CR [1, 12]: 0 (0.0) n (%)
Best response NE [1, 12]: 6 (11.5) n (%)
Best response PD [1, 12]: 27 (51.9) n (%)
Best response PR [1, 12]: 6 (11.5) n (%)
Best response SD [1, 12]: 13 (25.0) n (%)
DCR (95% CI) [1, 12]: 36.5 (23.6–51.0) %
ORR (95% CI) [1, 12]: 11.5 (4.4–23.4) %
Best response CR [1, 13]: 0 (0.0) n (%)
Best response NE [1, 13]: 3 (10.0) n (%)
Best response PD [1, 13]: 19 (63.3) n (%)
Best response PR [1, 13]: 0 (0.0) n (%)
Best response SD [1, 13]: 8 (26.7) n (%)
DCR (95% CI) [1, 13]: 26.7 (12.3–45.9) %
ORR (95% CI) [1, 13]: 0 (0–11.6) %
Patients with confirmed PR ([1]; patients with GC evaluated for response): 4/21
Futibatinib dose interruption [2, 14]: 30%
Futibatinib dose reduction [2, 14]: 12.5%
Safety concerns regardless of presence or absence of phosphate-binding therapy ([2]; futibatinib QD): No safety concerns were identified
Patients achieving the target serum Pi level ([2]; futibatinib dose reduction after starting phosphate-binding therapy (15 patients)): 86.7%
Hyperphosphatemia events leading to discontinuation of futibatinib ([2]; in vivo): not leading to futibatinib discontinuation; also recorded: none of the hyperphosphatemia events led to discontinuation of futibatinib
Patients achieving the target serum Pi level ([2]; no dose reduction after starting phosphate-binding therapy (10/20)): 50.0%
Cmax ([3]; Day 1, TIW 80 mg, n = 6, mean (standard deviation)): 866 (366) [42.3] ng/ml
t1/2 ([3]; Day 1, TIW 120 mg, n = 3, mean (standard deviation)): 6.64 (1.08) [16.3] ^b h
Dose proportionality of Cmax and AUC ([3]; TIW regimens, single and multiple administrations): dose‐proportional changes in Cmax and AUC0–last
Cmax [3, 15]: 173 (NC) [NC] ng/ml
RAUC0–last [3, 15]: 1.29 (NC) [NC]
RCmax [3, 15]: 0.91 (NC) [NC]
Cmax ([3]; Week 3, TIW 8 mg, n = 1): 167 (NC) [NC] ng/ml
t1/2 ([3]; Week 3, TIW 8 mg, n = 1): 1.74 (NC) [NC] h
RAUC0–last ([3]; Week 3, TIW 8 mg, n = 1): 1.69 (NC) [NC]
RCmax ([3]; Week 3, TIW 8 mg, n = 1): 1.24 (NC) [NC]
t1/2 ([3]; Week 3, TIW 16 mg, n = 1): 5.27 (NC) [NC] h
RAUC0–last ([3]; Week 3, TIW 16 mg, n = 1): 1.39 (NC) [NC]
RCmax ([3]; Week 3, TIW 16 mg, n = 1): 0.96 (NC) [NC]
RAUC0–last ([3]; Week 3, TIW 24 mg, n = 1): 0.80 (NC) [NC]
RCmax ([3]; Week 3, TIW 24 mg, n = 1): 0.72 (NC) [NC]
RAUC0–last [3, 16]: 1.51 (0.47) [30.9]
RCmax [3, 16]: 0.88 (0.44) [49.7]
RAUC0–last [3, 17]: 1.36 (0.44) [32.5]
RCmax [3, 17]: 1.25 (0.36) [28.8]
AUC0–last [3, 18]: 7394 (3731) [50.5] ng·h/ml
RAUC0–last [3, 18]: 1.25 (0.25) [20.0]
RCmax [3, 18]: 0.96 (0.09) [9.1]
RAUC0–last [3, 19]: 1.27 (0.29) [23.1]
RCmax [3, 19]: 1.02 (0.34) [33.2]
RAUC0–last [3, 20]: 1.54 (0.64) [41.6]
RCmax [3, 20]: 1.05 (0.82) [78.2]
Renal excretion of unchanged futibatinib ([3]; in vivo): negligible
Dose proportionality of Cmax and AUC [4]: statistically dose‐proportional between 4 mg and 24 mg QD
AUC(0-inf) ([5]; 8 mg, Day 1, TIW 8 mg, n = 1): 0.39 µg·h/mL
AUC(0-inf) ([5]; 8 mg, Week 3, TIW 8 mg, n = 1): 0.663 µg·h/mL
AUC(0-t) ([5]; 8 mg, Day 1, TIW 8 mg, n = 1): 0.387 µg·h/mL
AUC(0-t) ([5]; 8 mg, Week 3, TIW 8 mg, n = 1): 0.653 µg·h/mL
Cmax ([5]; 8 mg, Day 1, TIW 8 mg, n = 1): 0.135 µg/mL
Tmax ([5]; 8 mg, Day 1, TIW 8 mg, n = 1, median): 1.87 h
half-life ([5]; 8 mg, t1/2, Day 1, TIW 8 mg, n = 1): 1.58 h
AUC(0-inf) [5, 21]: 1.02 µg·h/mL
AUC(0-inf) ([5]; 16 mg, Day 1, TIW 16 mg, n = 1): 1.19 µg·h/mL
AUC(0-inf) [5, 22]: 1.58 µg·h/mL
AUC(0-t) [5, 21]: 1.01 µg·h/mL
AUC(0-t) ([5]; 16 mg, Day 1, TIW 16 mg, n = 1): 1.14 µg·h/mL
AUC(0-t) [5, 22]: 1.58 µg·h/mL
Cmax [5, 21]: 0.235 µg/mL
Cmax ([5]; 16 mg, Day 1, TIW 16 mg, n = 1): 0.189 µg/mL
Cmax [5, 22]: 0.182 µg/mL
Tmax ([5]; 16 mg, Day 1, QD 16 mg, n = 3, median (minimum, maximum)): 0.95 h
Tmax ([5]; 16 mg, Day 1, TIW 16 mg, n = 1, median): 1.95 h
Tmax ([5]; 16 mg, Week 3, TIW 16 mg, n = 1, median): 2.9 h
half-life ([5]; 16 mg, t1/2, Day 1, QD 16 mg, n = 3, mean (standard deviation)): 2.68 h
half-life ([5]; 16 mg, t1/2, Day 1, TIW 16 mg, n = 1): 5.72 h
AUC(0-inf) [5, 23]: 0.983 µg·h/mL
AUC(0-inf) [5, 24]: 0.729 µg·h/mL
AUC(0-t) [5, 23]: 0.977 µg·h/mL
AUC(0-t) [5, 24]: 0.727 µg·h/mL
Cmax [5, 23]: 0.253 µg/mL
half-life ([5]; 20 mg, t1/2, Day 1, QD 20 mg, n = 7, mean (standard deviation)): 2.18 h
half-life ([5]; 20 mg, t1/2, Week 3 (day 21), QD 20 mg, n = 2, mean): 3.05 h
AUC(0-inf) ([5]; 24 mg, Day 1, TIW 24 mg, n = 1): 0.623 µg·h/mL
AUC(0-inf) [5, 25]: 0.502 µg·h/mL
AUC(0-t) ([5]; 24 mg, Day 1, TIW 24 mg, n = 1): 0.621 µg·h/mL
AUC(0-t) [5, 25]: 0.499 µg·h/mL
Cmax ([5]; 24 mg, Day 1, TIW 24 mg, n = 1): 0.204 µg/mL
Cmax [5, 25]: 0.146 µg/mL
Tmax ([5]; 24 mg, Day 1, TIW 24 mg, n = 1, median): 1.95 h
Tmax ([5]; 24 mg, Week 3, TIW 24 mg, n = 1, median): 3.98 h
half-life ([5]; 24 mg, t1/2, Day 1, TIW 24 mg, n = 1): 1.55 h
half-life ([5]; 24 mg, t1/2, Week 3, TIW 24 mg, n = 1): 1.47 h
AUC(0-inf) ([5]; 36 mg, Week 3, TIW 36 mg, n = 3, mean): 2.16 µg·h/mL
half-life ([5]; 36 mg, t1/2, Week 3, TIW 36 mg, n = 2, mean): 3.64 h
Susceptibility to resistance development [6]: low susceptibility to resistance development
